Details: reference drugs for assay validation; mean ± SD of three experiments in triplicate

SMILES	Experimental Pe (PAMPA-BBB)
CCn1cc(C(=O)O)c(=O)c2cc(F)c(N3CCNCC3)cc21 [Norfloxacin]	0.8 ± 0.05 10^−6 cm s^−1
CN1C(C(=O)Nc2ccccn2)=C(O)c2ccccc2S1(=O)=O [Piroxicam]	2.4 ± 0.07 10^−6 cm s^−1
